From patent US20180193294A1, “Dehydroabietic acid (DHAA) derivatives for use as ion channel openers” (priority 2015, published 2018)

Target: 3R Shaker K channel (Drosophila melanogaster, UniProt P08510, A359R/M356R)
Experiment: physchem
Assay type: cell-based
Details: 100 μM; for G(V) shift: Table 1; for effect on G(V) shift / current compared with DHAA: C7-modified DHAA
Description: A 3R Shaker K channel is a modified Shaker K channel where residues 356 and 359 are mutated to arginines.
All animal experiments were approved by the local Animal Care and Use Committee and followed international guidelines. A modified Shaker H4 channel^30, with removed N-type inactivation (ShH4IR)^31, here called the wild type (WT) channel, was expressed in oocytes. In addition, a modified 3R Shaker K channel where two introduced positive charged arginines (M356R and A359R) in addition to one native arginine (R362) makes the channel more sensitive to DHA^16, was expressed in oocytes and in a CHO—K1 stable cell line.
African clawed frogs (Xenopus laevis) were anesthetized with 1.4 g/L ethyl 3-aminobenzoate methanesulfonate salt (tricaine). After an incision through the abdomen a batch of oocytes were removed. Clusters of oocytes were separated by incubation for ˜1 h in a Ca-free O—R2 solution (in mM: 82.5 NaCl, 2 KCl, 5 HEPES, and 1 MgCl2; pH adjusted to 7.4 by NaOH) containing Liberase Blendzyme. The oocytes were then incubated at 8° C. in a modified Barth's solution (MBS; in mM: 88 NaCl, 1 KCl, 2.4 NaHCO3, 15 HEPES, 0.33 Ca(NO3)2, 0.41 CaCl2, and 0.82 MgSO4; pH adjusted to 7.6 by NaOH) supplemented with penicillin (25 U/ml), streptomycin (25 μg/ml), and sodium pyruvate (2.5 mM) 2-24 hours before injection. Fifty nl of cRNA (50 pg) were injected into each oocyte using a Nanoject injector (Drummond Scientific, Broomall, Pa.). Injected oocytes were kept at 8° C. in MBS until one day before electrophysiological recordings, when they were incubated at 16° C. All chemicals were supplied from Sigma-Aldrich (Stockholm, Sweden) if not stated otherwise.
All manual electrophysiological recordings were performed at room temperature (20-23° C.), using a GeneClamp 500B amplifier (for oocytes) or a Axopatch 200B amplifier (for manual patch clamp of CHO—K1 cells and DRG neurons) and a Digidata 1440A digitizer and pClamp 10 software (all from Molecular Devices, Inc., Sunnyvale, Calif., USA). Compounds were dissolved to 100 mM in 99.5% EtOH and stored at −20° C. Compounds were diluted in extracellular solution to the desired test concentration.
The oocyte was placed in a bath surrounded by 1K extracellular solution that contained (in mM): 88 NaCl, 1 KCl, 15 HEPES, 0.4 CaCl2, and 0.8 MgCl2, pH adjusted to 7.4 by NaOH (reaching a sodium concentration of ˜100 mM). Control solution was added to the bath with a gravity driven perfusion system. Compound solution was added to the bath manually with a syringe. Two glass microelectrodes were inserted into the oocyte using micromanipulators. […] All channels were closed when the potential was clamped to −80 mV and this voltage was set as the holding potential. Currents were evoked from the holding potential of −80 mV by 100-ms long, 5-mV steps ranging from −80 up to +50 mV (WT) and +70 mV (3R).
Conductance GK(V) was calculated as GK(V)=[…], (Eq. 1) where IK is the average current from the steady-state phase at the end of each 100-ms pulse, V is the membrane voltage, and Vrev is the reversal potential for K^+, (set to −80 mV for the oocytes, and calculated to be −89 mV for the CHO—K1 cells).
G(V)=A/(1+exp((V1/2−V)/s))^n (Eq. 2) where A is amplitude of the curve, V is the absolute membrane voltage, V1/2 is the midpoint, s is the slope and n is an exponent set to 4^17. The compound-induced G(V) shift was determined at the 10% level of the maximum conductance in control solution^17. The compound-induced G(V) shift in CHO—K1 was quantified by subtracting the control V1/2 from the compound V1/2 when n was set to 1.
Data for concentration and pH dependent G(V) shifts (ΔV) in oocytes were fit with a dose-response equation ΔV=ΔVmax/(1+c1/2/c), (Eq. 3) where Δvmax is the maximal shift, c1/2 is half maximal effective concentration/pKa value and c is the concentration.

3R Shaker K channel, sequence (P08510 whole entry M356R/A359R): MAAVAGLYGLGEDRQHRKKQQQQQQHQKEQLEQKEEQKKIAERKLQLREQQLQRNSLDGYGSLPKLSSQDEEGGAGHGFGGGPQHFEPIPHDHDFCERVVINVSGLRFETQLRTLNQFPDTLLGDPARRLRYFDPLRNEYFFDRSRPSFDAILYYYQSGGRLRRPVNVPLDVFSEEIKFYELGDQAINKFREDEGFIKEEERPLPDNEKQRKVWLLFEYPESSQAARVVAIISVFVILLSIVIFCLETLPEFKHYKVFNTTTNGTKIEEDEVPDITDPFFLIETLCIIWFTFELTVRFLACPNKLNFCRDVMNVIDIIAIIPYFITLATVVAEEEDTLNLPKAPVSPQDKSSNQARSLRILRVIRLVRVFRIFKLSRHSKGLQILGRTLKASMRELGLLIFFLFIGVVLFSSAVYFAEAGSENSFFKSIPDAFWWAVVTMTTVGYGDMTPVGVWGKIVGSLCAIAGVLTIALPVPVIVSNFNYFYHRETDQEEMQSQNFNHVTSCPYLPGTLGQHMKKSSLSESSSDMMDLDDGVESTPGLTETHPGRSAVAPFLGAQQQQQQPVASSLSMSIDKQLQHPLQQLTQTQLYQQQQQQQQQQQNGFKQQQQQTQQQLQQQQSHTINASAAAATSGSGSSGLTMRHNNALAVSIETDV

`CC(C)c1cc(Cl)c2c(c1)CCC1C(C)(C(=O)O)CCCC21C` (centres unmarked) [Wu100] was tested, and the “G(V) shift” value (pH 7.4, Xenopus oocytes) was −2.7 mV.

With `COC1CC2[C@](C)(C(=O)O)CCC[C@]2(C)c2ccc(C(C)C)cc21` (some centres unmarked) [Wu39] the “effect on G(V) shift / current compared with DHAA” value (from here on “effect on G(V) shift / current”) (pH 7.4) was “clearly reduced the current increase”, the “G(V) shift” value (pH 7.4, Xenopus oocytes) was −7.3 mV and the relative current amplitude (representative traces at voltage giving 10% of maximum conductance in control, pH 7.4) was 2.6 times.

`CC(C)c1cc2c(cc1Br)[C@@]1(C)CCC[C@@](C)(C(=O)O)C1CC2` (stereo partly drawn) [Wu24, (1R,4aS,E)-6-bromo-7-isopropyl-1,4a-dimethyl-1,2,3,4,4a,9,10,10a-octahydrophenanthrene-1-carboxylic acid] was tested, and the “increase in G(V) shift relative to DHAA (ΔVc7, ΔVhalo, ΔVtot)” value (pH 7.4) was −0.3 mV, the “compound-induced G(V) shift (mean±SEM)” value (pH 7.4, Xenopus oocytes) was −12.4 mV and the “G(V) shift” value (pH 7.4, Xenopus oocytes) was −12.5 mV.

For `C=Cc1cc2c(cc1C(C)C)C(=O)C[C@H]1[C@](C)(C(=O)O)CCC[C@]21C` [Wu118], the “G(V) shift” value (pH 7.4, Xenopus oocytes) was 0.2 mV.

For `CC(C)c1cc2c(cc1F)[C@@]1(C)CCC[C@@](C)(C(=O)O)[C@@H]1CC2` [Wu108, (1R,4aS,10aR)-6-fluoro-7-isopropyl-1,4a-dimethyl-1,2,3,4,4a,9,10,10a-octahydrophenanthrene-1-carboxylic acid], the “G(V) shift” value (pH 7.4, Xenopus oocytes) was −10.4 mV.

With `C=CCO/N=C1\CC2[C@](C)(C(=O)O)CCC[C@]2(C)c2cc(I)c(C(C)C)cc21` (stereo partly drawn) [Wu63, (1R,4aS,E)-9-((allyloxy)imino)-6-iodo-7-isopropyl-1,4a-dimethyl-1,2,3,4,4a,9,10,10a-octahydrophenanthrene-1-carboxylic acid] the “G(V) shift” value (pH 7.4, Xenopus oocytes) was −19.3 mV.

With `CON=C1C[C@H]2[C@](C)(C(=O)O)CCC[C@]2(C)c2cc(Cl)c(C(C)C)c(Cl)c21` [Wu41, (1R,4aS,10aR)-6,8-dichloro-7-isopropyl-9-(methoxyimino)-1,4a-dimethyl-1,2,3,4,4a,9,10,10a-octahydrophenanthrene-1-carboxylic acid] the “G(V) shift” value (pH 7.4, Xenopus oocytes) was −22.1 mV.

For `CO/N=C1\CC2[C@](C)(C(=O)O)CCC[C@]2(C)c2cc(C3CC3)c(C(C)C)cc21` (stereo partly drawn) [Wu122, (1R,4aS,E)-6-cyclopropyl-7-isopropyl-9-(methoxyimino)-1,4a-dimethyl-1,2,3,4,4a,9,10,10a-octahydrophenanthrene-1-carboxylic acid], the “G(V) shift” value (pH 7.4, Xenopus oocytes) was −32.3 mV.

`CC(C)c1ccc2c(c1)C(=NO)CC1C(C)(C(=O)O)CCCC21C` (centres unmarked) [Wu31] was tested, and the “effect on G(V) shift / current” value (pH 7.4) was “clearly reduced the current increase” and the “G(V) shift” value (pH 7.4, Xenopus oocytes) was −3.0 mV.

`C=CCO/N=C1\CC2[C@](C)(C(=O)O)CCC[C@]2(C)c2cc(F)c(C(C)C)cc21` (stereo partly drawn) [Wu52, (1R,4aS,E)-9-((allyloxy)imino)-6-fluoro-7-isopropyl-1,4a-dimethyl-1,2,3,4,4a,9,10,10a-octahydrophenanthrene-1-carboxylic acid] was tested, and the “G(V) shift” value (pH 7.4, Xenopus oocytes) was −20.2 mV.

`C=Cc1c(C(C)C)ccc2c1CCC1[C@](C)(C(=O)O)CCC[C@]21C` (some centres unmarked) [Wu76] was tested, and the “G(V) shift” value (pH 7.4, Xenopus oocytes) was −7.7 mV.

For `CC(C)c1ccc2c(c1C1CC1)CC[C@H]1[C@](C)(C(=O)O)CCC[C@]21C` [Wu127], the “G(V) shift” value (pH 7.4, Xenopus oocytes) was −9.6 mV.

`CC(C)c1cc2c(cc1Cl)[C@@]1(C)CCC[C@@](C)(C(=O)O)C1C/C2=N\O` (stereo partly drawn) [Wu21, (1R,4aS,E)-6-chloro-7-isopropyl-9-hydroxyimino-1,4a-dimethyl-1,2,3,4,4a,9,10,10a-octahydrophenanthrene-1-carboxylic acid] was tested, and the “G(V) shift” value (pH 7.4, Xenopus oocytes) was −13.8 mV.

With `CC(C)c1c(Cl)c(Cl)c2c(c1Cl)C(=NO)CC1C(C)(C(=O)O)CCCC21C` (centres unmarked) [Wu48] the “G(V) shift” value (pH 7.4, Xenopus oocytes) was 4.7 mV.

With `CC(C)c1ccc2c(c1Br)C(=NO)CC1C(C)(C(=O)O)CCCC21C` (centres unmarked) [Wu88] the “G(V) shift” value (pH 7.4, Xenopus oocytes) was −5.6 mV.

For `C=CCO/N=C1\CC2[C@](C)(C(=O)O)CCC[C@]2(C)c2cc(Br)c(C(C)C)cc21` (stereo partly drawn) [Wu33, (1R,4aS,E)-6-bromo-9-((allyloxy)imino)-7-isopropyl-1,4a-dimethyl-1,2,3,4,4a,9,10,10a-octahydrophenanthrene-1-carboxylic acid], the “G(V) shift” value (pH 7.4, Xenopus oocytes) was −24.5 mV.

In the case of `C=CCO/N=C1\CC2[C@](C)(C(=O)O)CCC[C@]2(C)c2cc(C3CC3)c(C(C)C)cc21` (stereo partly drawn) [Wu123, (1R,4aS,E)-9-((allyloxy)imino)-6-cyclopropyl-7-isopropyl-1,4a-dimethyl-1,2,3,4,4a,9,10,10a-octahydrophenanthrene-1-carboxylic acid], the “G(V) shift” value (pH 7.4, Xenopus oocytes) is reported as −26.3 mV.

With `CC(C)c1cc2c(cc1Cl)C1(C)CCCC(C)(C(=O)O)C1CC2=NOCc1ccccc1` (centres unmarked) [Wu22] the “G(V) shift” value (pH 7.4, Xenopus oocytes) was −9.1 mV.

With `CC(C)c1c(Cl)c(Cl)c2c(c1Cl)CCC1C(C)(C(=O)O)CCCC21C` (centres unmarked) [Wu45] the “G(V) shift” value (pH 7.4, Xenopus oocytes) was −3.9 mV.

`CC(C)c1ccc2c(c1)C(=NOCc1ccccc1)CC1C(C)(C(=O)O)CCCC21C` (centres unmarked) [Compound K9] was tested, and the “effect on G(V) shift / current” value (pH 7.4) was “no significantly different effects compared to DHAA” and the “G(V) shift” value (pH 7.4, Xenopus oocytes) was −9.5 mV.

In the case of `C=CCO/N=C1\CC2[C@](C)(C(=O)O)CCC[C@]2(C)c2cc(C=C)c(C(C)C)cc21` (stereo partly drawn) [Wu120, (1R,4aS,E)-9-((allyloxy)imino)-7-isopropyl-1,4a-dimethyl-6-vinyl-1,2,3,4,4a,9,10,10a-octahydrophenanthrene-1-carboxylic acid], the “G(V) shift” value (pH 7.4, Xenopus oocytes) is reported as −26.1 mV.

`CC(C)c1cc2c(cc1Cl)[C@@]1(C)CCC[C@@](C)(C(=O)O)C1CC2=O` (stereo partly drawn) [Wu20, (1R,4aS,E)-6-chloro-7-isopropyl-9-oxo-1,4a-dimethyl-1,2,3,4,4a,9,10,10a-octahydrophenanthrene-1-carboxylic acid] was tested, and the “G(V) shift” value (pH 7.4, Xenopus oocytes) was −13.9 mV.

In the case of `CO/N=C1\C[C@H]2[C@](C)(C(=O)O)CCC[C@]2(C)c2c(Cl)cc(C(C)C)cc21` [Wu105, (1R,4aS,10aR)-5-chloro-7-isopropyl-9-(methoxyimino)-1,4a-dimethyl-1,2,3,4,4a,9,10,10a-octahydrophenanthrene-1-carboxylic acid], the “G(V) shift” value (pH 7.4, Xenopus oocytes) is reported as −23.2 mV.

In the case of `CC(C)c1cc2c(cc1I)[C@@]1(C)CCC[C@@](C)(C(=O)O)[C@@H]1CC2=O` [Wu62, (1R,4aS,10aR)-6-iodo-7-isopropyl-9-oxo-1,4a-dimethyl-1,2,3,4,4a,9,10,10a-octahydrophenanthrene-1-carboxylic acid], the “G(V) shift” value (pH 7.4, Xenopus oocytes) is reported as −13.7 mV.

`C=Cc1cc2c(cc1C(C)C)/C(=N/OC)CC1[C@](C)(C(=O)O)CCC[C@]21C` (stereo partly drawn) [Wu119, (1R,4aS,E)-7-isopropyl-9-(methoxyimino)-1,4a-dimethyl-6-vinyl-1,2,3,4,4a,9,10,10a-octahydrophenanthrene-1-carboxylic acid] was tested, and the “G(V) shift” value (pH 7.4, Xenopus oocytes) was −30.3 mV.

With `C[C@@]1(C(=O)O)CCC[C@]2(C)c3ccc(Cl)c(Cl)c3CCC12` (stereo partly drawn) [Wu115, (1R,4aS)-7,8-dichloro-1,4a-dimethyl-1,2,3,4,4a,9,10,10a-octahydrophenanthrene-1-carboxylic acid] the “G(V) shift” value (pH 7.4, Xenopus oocytes) was −24.2 mV.

`CC=Cc1cc2c(cc1C(C)C)CCC1[C@](C)(C(=O)O)CCC[C@]21C` (some centres unmarked) [Wu84] was tested, and the “G(V) shift” value (pH 7.4, Xenopus oocytes) was −0.2 mV.

For `CC(C)c1c(Cl)cc2c(c1Cl)C(=O)CC1C(C)(C(=O)O)CCCC21C` (centres unmarked) [Wu37], the “G(V) shift” value (pH 7.4, Xenopus oocytes) was −11.1 mV.

In the case of `C=CCON=C1CC2C(C)(C(=O)O)CCCC2(C)c2ccc(C(C)C)c(F)c21` (centres unmarked) [Wu53], the “G(V) shift” value (pH 7.4, Xenopus oocytes) is reported as −9.2 mV.

In the case of `CC(C)c1ccc2c(c1Cl)C(=NOCc1ccccc1)CC1C(C)(C(=O)O)CCCC21C` (centres unmarked) [Wu18], the “G(V) shift” value (pH 7.4, Xenopus oocytes) is reported as −1.3 mV.

`CC(C)c1cc2c(cc1I)[C@@]1(C)CCC[C@@](C)(C(=O)O)C1CC2` (stereo partly drawn) [Wu60, (1R,4aS,E)-6-iodo-7-isopropyl-1,4a-dimethyl-1,2,3,4,4a,9,10,10a-octahydrophenanthrene-1-carboxylic acid] was tested, and the “G(V) shift” value (pH 7.4, Xenopus oocytes) was −9.0 mV.

With `C=CCON=C1CC2C(C)(C(=O)O)CCCC2(C)c2cc(Cl)c(C(C)C)c(Cl)c21` (centres unmarked) [Wu40] the “G(V) shift” value (pH 7.4, Xenopus oocytes) was −13.4 mV.
